# Measurements published in article PMC5584945, “Evaluation of robenidine analog NCL195 as a novel broad-spectrum antibacterial agent” (PLoS ONE, 2017).
# Tests used:
# [1] = system: Enterococcus faecalis ATCC 29212; assay: MIC, broth micro-dilution (CLSI), control strain; format: cell-based
# Procedure: MICs for NCL812 and its analogs (serial two-fold dilutions commencing at 128 μg/ml) were determined (in duplicate) in round bottom 96-well microtitre trays (Sarstedt 82.1582.001), using the broth micro-dilution method recommended by the Clinical and Laboratory Standards Institute (CLSI). […] MIC50, MIC90 and MIC range for NCL812, NCL195 and NCL219 were calculated against each S. pneumoniae, S. aureus or VRE isolate. To assess the potential activity of NCL195 against Gram-negative bacteria, MICs against Acinetobacter spp, E. coli, K. pneumoniae, P. aeruginosa, Proteus spp and Neisseria meningitidis were performed in the presence or absence of 0.08 mM-20 mM EDTA in a standard checkerboard assay.
# [2] = system: human red blood cells; assay: Haemolysis assay; format: cell-based; details: 1 h, 37°C; highest concentration used 128 μg/ml
# Procedure: This was performed using fresh donor human red blood cells (RBCs), essentially as described previously. Fresh RBCs were washed in PBS three times at 500 × g for 5 min, and then resuspended 1% (w/v) in PBS. […] Thereafter, 198 μL of the 1% RBC solution was added into each well, and the mixture incubated for 1 h at 37°C, with shaking at 100 rpm. Quadruplicate wells containing either 1% Triton X100, or PBS only, served as controls. After incubation, the trays were centrifuged at 1,000 × g for 3 min and 100 μl of supernatant from each well transferred into a new 96-well tray. Absorbance was measured at A450 nm on a Multiskan Ascent 354 Spectrophotometer (Labsystems) and plotted against each dilution. Haemolytic titer was determined as the reciprocal of the dilution at which 50% of erythrocytes were lysed at A450 nm. The experiment was performed twice.
# [3] = system: MDBK; assay: Real-time cell viability, RealTime-Glo MT; format: cell-based, bovine; details: 2 or 8 μg/ml, up to 20 h post-treatment
# From the text: In order to ensure minimal off target mammalian cell cytotoxicity, we assayed NCL812, NCL195 and NCL219 for in vitro cytotoxicity using a panel of adherent mammalian cell lines: Caco-2 (human colorectal adenocarcinoma cell line), HEL 299 (non-cancerous human lung fibroblast cell line), Hep G2 (human hepatocellular carcinoma cell line), MDBK (normal bovine kidney cell line) and MCF7 (human mammary gland adenocarcinoma cell line). Cell lines were maintained in Dulbecco’s Modified Eagle’s Medium (DMEM; […] After 24 h incubation, media was removed, washed once with medium without antibiotics and fresh medium supplemented with 10% (vol/vol) FBS was added. […] Following exposure for 24 h, WST-1 reagent was added to each well at a final concentration of 10%. […] The IC50 value for each compound against each cell line was determined via non-linear regression (three parameters) using GraphPad Prism v6 software. The robustness of assays was confirmed with selected cell lines (Hep G2 and MDBK) seeded onto a 96–well Microwell Nunclon Delta Surface plate (Thermo Scientific Nunc; Cat No: 136101) at 5 × 10^4 cells per well.
# [4] = system: S. aureus ATCC49775; assay: Membrane potential, DiOC2(3) fluorescence; format: cell-based, Staphylococcus aureus; details: 16 μg/ml, pre-incubated 5 min; versus untreated and ampicillin
# Procedure: To further examine the mechanism underlying the perturbation of the cell membrane of S. pneumoniae or S. aureus by the NCL compounds, the membrane potential of the cells was measured by fluorescence spectrometry using (DiOC2(3), essentially as described previously. Briefly, […] cells from an overnight HBA plate were grown in Todd-Hewitt broth supplemented with 1% yeast extract (THY) at 37°C, 5% CO2 until A600 nm = 0.5. […] The cuvette was then placed in a LS 55 Fluorescence Spectrometer (PerkinElmer) set at Ex. 488 nm/Em. 620 nm, with excitation and emission slit widths at 5 nm and 7 nm, respectively). […] All assays were performed at least twice.
# [5] = Kinetic solubility by nephelometry; format: physicochemical; details: kinetic from dmso stock
# [6] = system: vancomycin-resistant enterococci (VRE); assay: MIC, broth micro-dilution (CLSI); format: cell-based, enterococci (porcine isolates); details: for MIC50 / MIC90 / MIC: Enterococcus, VRE
# [7] = S3 Table isolates, absence of FBS
smiles,measurement,setting,value
"Cl.N=C(NN=Cc1ccc(Cl)cc1)NN=Cc1ccc(Cl)cc1 [NCL812, 2,2'-bis[(4-chlorophenyl)methylene] carbonimidic dihydrazide hydrochloride]",MIC,"[1]; ATCC29212, 10% FBS",32 µg/mL
same,MIC,"[1]; ATCC29212, absence of FBS",4 µg/mL
same,50% haemolysis titre (HC50),[2],24 µg/mL
same,Effect on cell viability (real-time),[3],affected viability at 8 μg/ml
same,Effect on generated membrane potential,[4],large reduction in the magnitude of the generated membrane potential
same,solubility,[5]; pH 2.0,6.3 to 12.5 µg/mL
same,solubility,[5]; pH 6.5,< 1.6 µg/mL
same,Fold increase of MIC range in the presence of 10% FBS,[6]; 10% FBS versus no FBS,8-16 fold
same,MIC range,[6]; 20 isolates,2 to 4 µg/mL
same,MIC50,"[6]; S3 Table isolates, 10% FBS",32 µg/mL
same,MIC90,"[6]; S3 Table isolates, 10% FBS",32 µg/mL
same,MIC50,[6]; [7],2 µg/mL
same,MIC90,[6]; [7],2 µg/mL
same,MIC,"[6]; VRE 1 (49 FR), 10% FBS",32 µg/mL
same,MIC,"[6]; VRE 1 (49 FR), absence of FBS",2 µg/mL
same,MIC,"[6]; VRE 2 (53 FR), 10% FBS",32 µg/mL
same,MIC,"[6]; VRE 2 (53 FR), absence of FBS",2 µg/mL
same,MIC,"[6]; VRE 3 (55 FR), 10% FBS",32 µg/mL
same,MIC,"[6]; VRE 3 (55 FR), absence of FBS",2 µg/mL
same,MIC,"[6]; VRE 4 (57 FR), 10% FBS",32 µg/mL
same,MIC,"[6]; VRE 4 (57 FR), absence of FBS",2 µg/mL
same,MIC,"[6]; VRE5 (58 FR), 10% FBS",32 µg/mL
same,MIC,"[6]; VRE5 (58 FR), absence of FBS",4 µg/mL
same,MIC,"[6]; VRE 6 (59 FR), 10% FBS",32 µg/mL
same,MIC,"[6]; VRE 6 (59 FR), absence of FBS",2 µg/mL
same,MIC,"[6]; VRE 7 (270 G), 10% FBS",32 µg/mL
same,MIC,"[6]; VRE 7 (270 G), absence of FBS",4 µg/mL
same,MIC,"[6]; VRE 8 (277 G), 10% FBS",32 µg/mL
same,MIC,"[6]; VRE 8 (277 G), absence of FBS",2 µg/mL
same,MIC,"[6]; VRE 9 (61 FR), 10% FBS",32 µg/mL
same,MIC,"[6]; VRE 9 (61 FR), absence of FBS",2 µg/mL
same,MIC,"[6]; VRE 10 (62 FR), 10% FBS",32 µg/mL
same,MIC,"[6]; VRE 10 (62 FR), absence of FBS",2 µg/mL
same,MIC,"[6]; VRE 11 (284 G), 10% FBS",32 µg/mL
same,MIC,"[6]; VRE 11 (284 G), absence of FBS",2 µg/mL
same,MIC,"[6]; VRE 12 (290 G), 10% FBS",32 µg/mL
same,MIC,"[6]; VRE 12 (290 G), absence of FBS",2 µg/mL
same,MIC,"[6]; VRE 13 (251 G), 10% FBS",32 µg/mL
same,MIC,"[6]; VRE 13 (251 G), absence of FBS",2 µg/mL
same,MIC,"[6]; VRE 14 (252 G), 10% FBS",32 µg/mL
same,MIC,"[6]; VRE 14 (252 G), absence of FBS",2 µg/mL
same,MIC,"[6]; VRE 15 (63 FR), 10% FBS",32 µg/mL
same,MIC,"[6]; VRE 15 (63 FR), absence of FBS",2 µg/mL
same,MIC,"[6]; VRE 16 (60 FR), 10% FBS",32 µg/mL
same,MIC,"[6]; VRE 16 (60 FR), absence of FBS",4 µg/mL
same,MIC,"[6]; VRE 17 (45 FR), 10% FBS",32 µg/mL
same,MIC,"[6]; VRE 17 (45 FR), absence of FBS",2 µg/mL
same,MIC,"[6]; VRE 18 (69 W), 10% FBS",32 µg/mL
same,MIC,"[6]; VRE 18 (69 W), absence of FBS",2 µg/mL
same,MIC,"[6]; VRE 19 (70 W), 10% FBS",32 µg/mL
same,MIC,"[6]; VRE 19 (70 W), absence of FBS",2 µg/mL
same,MIC,"[6]; VRE 20 (78 W), 10% FBS",32 µg/mL
same,MIC,"[6]; VRE 20 (78 W), absence of FBS",2 µg/mL
same,MIC range,"[6]; S3 Table isolates, 10% FBS",32 µg/mL
same,MIC range,[6]; [7],2 to 4 µg/mL
